From patent EP4678644A1, “SUBSTITUTED DIHYDROTHIENOPYRIMIDINE COMPOUND, PREPARATION METHOD THEREFOR, AND USE THEREOF” (Shanghai Yidi Biotechnology Co., Ltd., priority 2023, dated 2024)

Tests used:
PDE4B2 [1] = molecular target: T1, PDE4B2 (Homo sapiens, UniProt Q07343); assay: PDE4B2 enzyme experiment (AMP-glo, cAMP substrate); type: biochemical
T1 construct: expressed in transfected cells; host or cells: Flp-In-293 (Flpin-293-PDE4B2 [sic])

PDE4B2 [2] = molecular target: T1, PDE4B2; assay: PDE4B2 cell experiment (cAMP, Eu-cAMP tracer / Ulight-anti-cAMP); type: cell-based; conditions: Flpin-293-PDE4B2 cells; for IC50: Foskolin; for Cell Inhibition% @1 nM / inhibition at 0.001 µM: 1 nM; for Cell Inhibition% @10 nM / inhibition at 0.01 µM: 10 nM; for Cell Inhibition% @100 nM / inhibition at 0.1 µM: 100 nM
PDE4D2 = PDE4D2 (Homo sapiens, UniProt Q08499); assay: PDE4D2 enzyme experiment (AMP-glo, cAMP substrate); type: biochemical; conditions: read-out: PDE4D2 IC50 Binding
Text: Inhibition rate % ^= (1 - (RLUpositive control - RLUcompound)/(RLUpositive control - RLUnegative control)) * 100.

Sequence of PDE4D2 (Q08499 303-809 limits assumed): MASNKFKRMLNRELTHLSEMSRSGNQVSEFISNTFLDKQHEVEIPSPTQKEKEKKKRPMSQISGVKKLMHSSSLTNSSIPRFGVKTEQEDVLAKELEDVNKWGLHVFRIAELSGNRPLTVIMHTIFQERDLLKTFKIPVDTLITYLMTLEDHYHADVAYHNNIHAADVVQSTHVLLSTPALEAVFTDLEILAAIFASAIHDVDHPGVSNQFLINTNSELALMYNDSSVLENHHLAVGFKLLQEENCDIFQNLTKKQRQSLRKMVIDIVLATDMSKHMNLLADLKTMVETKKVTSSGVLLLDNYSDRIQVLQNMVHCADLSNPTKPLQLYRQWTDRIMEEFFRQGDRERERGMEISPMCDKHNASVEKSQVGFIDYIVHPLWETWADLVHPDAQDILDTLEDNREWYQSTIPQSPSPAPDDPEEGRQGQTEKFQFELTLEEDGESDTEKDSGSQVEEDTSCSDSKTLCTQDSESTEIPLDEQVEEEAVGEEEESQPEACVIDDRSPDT
T1 sequence (Q07343 1-564 isoform Q07343-2): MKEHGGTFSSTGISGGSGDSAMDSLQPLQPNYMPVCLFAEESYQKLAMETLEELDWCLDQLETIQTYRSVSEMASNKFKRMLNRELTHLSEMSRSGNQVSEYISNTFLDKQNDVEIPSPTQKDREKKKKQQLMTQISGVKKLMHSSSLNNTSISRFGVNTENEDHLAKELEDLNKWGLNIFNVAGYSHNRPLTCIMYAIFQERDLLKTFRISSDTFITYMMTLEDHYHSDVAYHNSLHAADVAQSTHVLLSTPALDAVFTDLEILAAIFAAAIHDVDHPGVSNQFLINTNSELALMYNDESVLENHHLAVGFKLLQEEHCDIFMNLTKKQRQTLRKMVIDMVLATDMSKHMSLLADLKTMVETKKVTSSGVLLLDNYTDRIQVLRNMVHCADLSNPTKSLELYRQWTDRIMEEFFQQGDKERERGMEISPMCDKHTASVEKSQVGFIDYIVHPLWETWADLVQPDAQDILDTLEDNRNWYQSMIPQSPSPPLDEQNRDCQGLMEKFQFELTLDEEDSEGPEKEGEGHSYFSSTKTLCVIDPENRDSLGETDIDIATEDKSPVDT

IC50 (PDE4B2 [1])	Cell Inhibition% @1 nM (PDE4B2 [2])	Cell Inhibition% @10 nM (PDE4B2 [2])	Cell Inhibition% @100 nM (PDE4B2 [2])	IC50 (PDE4D2)	IC50 (PDE4B2 [2])	inhibition at 0.001 µM (PDE4B2 [2])	inhibition at 0.01 µM (PDE4B2 [2])	inhibition at 0.1 µM (PDE4B2 [2])	SMILES
0.889 nM	-1.71%	46.69%	95.76%	2.04 nM					Cn1c2c(c3ccc(Cl)cc3c1=O)CCN(c1nc3c(c(NC4(CO)CCC4)n1)[S+]([O-])CC3)C2 (stereo not shown) [Compound 98]
0.142 nM	19.25%	86.01%	99.96%	0.233 nM					[O-][S+]1CCc2nc(N3CCc4cc(-n5cccn5)ccc4C3)nc(NC3(CO)CCC3)c21 (stereo not shown) [Compound 91]
0.338 nM	2.83%	38.89%	95.41%	0.873 nM					[O-][S+]1CCc2nc(N3CCc4c(c(NCCO)nc5cc(Cl)ccc45)C3)nc(NC3(CO)CCC3)c21 (stereo not shown) [Compound 103]
10.7 nM				17.3 nM	78 nM				Cc1nc2c(s1)CN(c1nc3c(c(NC4(CO)CCC4)n1)[S+]([O-])CC3)CC2 (stereo not shown) [Compound 16]
0.488 nM		81.81%	99.55%	0.826 nM					[O-][S+]1CCc2nc(N3CCc4cc(C(F)(F)F)ccc4C3)nc(NC3(CO)CCC3)c21 (stereo not shown) [Compound 52]
1.14 nM	2.82%	52.48%	98.12%	2.95 nM					[O-][S+]1CCc2nc(N3CC[C@@H]4c5cccc(Cl)c5OC[C@H]4C3)nc(NC3(CO)CCC3)c21 (stereo partly shown) [Compound 107]
0.77 nM				2.51 nM	19.7 nM				[O-][S+]1CCc2nc(N3CCc4cc(Cl)c(Cl)cc4C3)nc(NC3(CO)CCC3)c21 (stereo not shown) [Compound 26]
0.201 nM	23.54%	74.22%	97.65%	0.405 nM					[O-][S+]1CCc2nc(N3CCc4c(nn5cc(F)ccc45)C3)nc(NC3(CO)CCC3)c21 (stereo not shown) [Compound 32]
0.161 nM	3.35%	43.69%	98.17%	0.776 nM					[O-][S+]1CCc2nc(N3CCc4cc(N5CCCC5)ccc4C3)nc(NC3(CO)CCC3)c21 (stereo not shown) [Compound 92]
0.55 nM				0.88 nM	8.11 nM				O=[N+]([O-])c1ccc2c(c1)CCN(c1nc3c(c(NC4(CO)CCC4)n1)[S+]([O-])CC3)C2 (stereo not shown) [Compound 27]
0.705 nM	3.47%	37.42%	95.32%	1.63 nM					[O-][S+]1CCc2nc(N3CCc4cc(N5CC(F)C5)ccc4C3)nc(NC3(CO)CCC3)c21 (stereo not shown) [Compound 89]
0.426 nM	6.00%	47.68%	97.30%	1.15 nM					[O-][S+]1CCc2nc(N3CCc4c(ncc5cc(Cl)ccc45)C3)nc(NC3(CO)CCC3)c21 (stereo not shown) [Compound 100]
0.655 nM				1.96 nM	13.2 nM				COc1nc2cc(Cl)ccc2c2c1CN(c1nc3c(c(NC4(CO)CCC4)n1)[S+]([O-])CC3)CC2 (stereo not shown) [Compound 101]
1.24 nM	4.18%	43.68%	96.53%	3.14 nM					COc1nc2c(c3ccc(Cl)cc13)CCN(c1nc3c(c(NC4(CO)CCC4)n1)[S+]([O-])CC3)C2 (stereo not shown) [Compound 99]
0.38 nM				0.92 nM	10.4 nM				[O-][S+]1CCc2nc(N3CCc4cc(Br)ccc4C3)nc(NC3(CO)CCC3)c21 (stereo not shown) [Compound 24]
0.05 nM	61.02%	99.37%	100.73%	0.049 nM					Cn1ccc(-c2ccc3c(c2)CCN(c2nc4c(c(NC5(CO)CCC5)n2)[S+]([O-])CC4)C3)n1 (stereo not shown) [Compound 77]
0.0712 nM	34.83%	94.09%	100.44%	0.125 nM					Cn1cnc(-c2ccc3c(c2)CCN(c2nc4c(c(NC5(CO)CCC5)n2)[S+]([O-])CC4)C3)n1 (stereo not shown) [Compound 94]
2.71 nM				7.25 nM	29.6 nM				[O-][S@+]1CCc2nc(N3CCc4nn5cc(Cl)cnc5c4C3)nc(NC3(CO)CCC3)c21 [Compound 4]
0.476 nM				0.77 nM		8.99%	56.3%	96.1%	Cn1c(=O)oc2cc3c(cc21)CCN(c1nc2c(c(NC4(CO)CCC4)n1)[S@+]([O-])CC2)C3 [Compound 68, (R)-6-(4-((1-(hydroxymethyl)cyclobutyl)amino)-5-oxido-6,7-dihydrothieno[3,2-d]pyrimidin-2-yl)-1-methyl-5,6,7,8-tetrahydrooxazolo[4,5-g]isoquinolin-2(1H)-one]
0.596 nM				1.18 nM		17.1%	38.4%	70.1%	O=c1[nH]c2cc3c(cc2o1)CN(c1nc2c(c(NC4(CO)CCC4)n1)[S@+]([O-])CC2)CC3 [Compound 51, (R)-6-(4-((1-(hydroxymethyl)cyclobutyl)amino)-5-oxido-6,7-dihydrothieno[3,2-d]pyrimidin-2-yl)-5,6,7,8-tetrahydrooxazolo[4,5-g]isoquinolin-2(1H)-one]
0.92 nM				2.19 nM	23.7 nM				[O-][S+]1CCc2nc(N3CCc4cc(Cl)cc(Cl)c4C3)nc(NC3(CO)CCC3)c21 (stereo not shown) [Compound 25]
1.32 nM				3.89 nM	46.1 nM				[O-][S+]1CCc2nc(N3CCc4cc5c(cc4C3)OCO5)nc(NC3(CO)CCC3)c21 (stereo not shown) [Compound 35]
0.202 nM	6.93%	39.59%	72.19%	0.705 nM					O=C(O)Cc1ccc(Nc2nc(N3CCc4cc(Cl)ccc4C3)nc3c2[S@+]([O-])CC3)cc1 [Compound 129]
				0.876 nM					[O-][S@+]1CCc2nc(N3CCc4cc(N5CCCC5)c(F)cc4C3)nc(NC3(CO)CCC3)c21 [Compound 181, (R)-2-(7-fluoro-6-(pyrrolidin-1-yl)-3,4-dihydroisoquinolin-2(1H)-yl)-4-((1-(hydroxymethyl)cyclobutyl)amino)-6,7-dihydrothieno[3,2-d]pyrimidine 5-oxide]
				0.276 nM					[O-][S@+]1CCc2nc(N3CCc4c(sc5ccc(F)cc45)C3)nc(NC3(CO)CCC3)c21 [Compound 69, (R)-2-(6-fluoro-3,4-dihydrobenzo[4,5]thieno[2,3-c]pyridin-2(1H)-yl)-4-((1-(hydroxymethyl)cyclobutyl)amino)-6,7-dihydrothieno[3,2-d]pyrimidine 5-oxide]
				3.46 nM					[O-][S@+]1CCc2nc(N3CCc4nc(N5CCC5)sc4C3)nc(NC3(CO)CCC3)c21 [Compound 64, (R)-2-(2-(azetidin-1-yl)-6,7-dihydrothiazolo[5,4-c]pyridin-5(4H)-yl)-4-((1-(hydroxymethyl)cyclobutyl)amino)-6,7dihydrothieno[3,2-d]pyrimidine 5-oxide]
				1.88 nM					[O-][S@+]1CCc2nc(N3CCc4nc(N5CCCC5)cnc4C3)nc(NC3(CO)CCC3)c21 [Compound 218, (R)-4-((1-(hydroxymethyl)cyclobutyl)amino)-2-(2-(pyrrolidin-1-yl)-7,8-dihydropyrido[3,4-b]pyrazin-6(5H)-yl)-6,7-dihydrothieno[3,2-d]pyrimidine 5-oxide]
				0.224 nM					[O-][S@+]1CCc2nc(N3CCc4c(nn5cc(Cl)ccc45)C3)nc(NC3(CO)CCC3)c21 [Compound 9, (R)-2-(7-Chloro-3,4-dihydropyrazolo[1,5-a:3,4-c']dipyridin-2(1H)-yl)-4-((1-(hydroxymethyl)cyclobutyl)amino)-6,7-dihydrothieno[3,2-d]pyrimidine 5-oxide]
				6.38 nM					[O-][S@+]1CCc2nc(N3CCc4c(ccc(N5CCCC5)c4F)C3)nc(NC3(CO)CCC3)c21 [Compound 180, (R)-2-(5-fluoro-6-(pyrrolidin-1-yl)-3,4-dihydroisoquinolin-2(1H)-yl)-4-((1-(hydroxymethyl)cyclobutyl)amino)-6,7-dihydrothieno[3,2-d]pyrimidine 5-oxide]
				3.38 nM					[O-][S@+]1CCc2nc(N3CCc4nc(N5CCCC5)ccc4C3)nc(NC3(CO)CCC3)c21 [Compound 135, (R)-4-((1-(hydroxymethyl)cyclobutyl)amino)-2-(2-(pyrrolidin-1-yl)-7,8-dihydro-1,6-naphthyridin-6(5H)-yl)-6,7-dihydrothieno[3,2-d]pyrimidine 5-oxide]

SMILES	IC50 (PDE4B2 [1])	Cell Inhibition% @1 nM (PDE4B2 [2])	Cell Inhibition% @10 nM (PDE4B2 [2])	Cell Inhibition% @100 nM (PDE4B2 [2])	IC50 (PDE4D2)	IC50 (PDE4B2 [2])	inhibition at 0.001 µM (PDE4B2 [2])	inhibition at 0.01 µM (PDE4B2 [2])	inhibition at 0.1 µM (PDE4B2 [2])
[O-][S+]1CCc2nc(N3Cc4nn5cc(Cl)cnc5c4C3)nc(NC3(CO)CCC3)c21 (stereo not shown) [Compound 2]	19.3 nM				60.1 nM	418 nM			
[O-][S+]1CCc2nc(N3CCc4cc(Cl)ncc4C3)nc(NC3(CO)CCC3)c21 (stereo not shown) [Compound 78]	1.82 nM	2.20%	32.09%	86.33%	4.02 nM				
[O-][S@+]1CCc2nc(N3CC[C@@H]4c5ccc(Cl)cc5OC[C@H]4C3)nc(NC3(CO)CCC3)c21 [Compound 14, (R)-2-((4aR,10bS)-8-chloro-1,4a,5,10b-tetrahydro-2H-chromeno[3,4-c]pyridin-3(4H)-yl)-4-((1-(hydroxymethyl)cyclobutyl)amino)-6,7-dihydrothieno[3,2-d]pyrimidine 5-oxide]	0.21 nM				1.08 nM	16.5 nM			
C[C@@H]1c2ccc(Cl)cc2CCN1c1nc2c(c(NC3(CO)CCC3)n1)[S@+]([O-])CC2 [Compound 29]	0.54 nM				1.79 nM				
